For data set [1] the following is noted: unformulated CAP; cited from earlier work.
A short description of data set [2]: Particle size by dynamic light scattering (DLS).

For `CCCCCOC(=O)Nc1nc(=O)n([C@@H]2O[C@H](C)[C@@H](O)[C@H]2O)cc1F` [CAP, N4-pentyloxycarbonyl-5-deoxy-5-fluoro-cytidine], in data set [1], the “Time within which the drug by itself is eliminated from the body” value is 0.5 to 1 h. Further, the “Size of the particles formed by CAP” value in data set [2] (CAP in DI water, DLS) is reported as 2-30 nm. Also, the “Stability of CAP micelles” value in data set [2] (high concentrations of CAP in DI water, size and correlation function fluctuate) is reported as “not very stable”.

Source of the values: patent US20190091162A1, “POLYMER-LIPID HYBRID NANOPARTICLES OF CAPECITABINE UTILIZING MICROMIXING AND CAPECITABINE AMPHIPHILIC PROPERTIES” (Jingjie PTM BioLab (Hangzhou) Co., Ltd., priority 2017, published 2019).
